Where “and” joins values, the source holds several entries; their conditions need not be identical. Equal values may be shown once. Read-outs that look alike come from different tables or passages of the source.
Key:
[1] = target: human recombinant GCL (Homo sapiens (Human), UniProt P48506); assay: GCL enzyme profiling assay (ADP-Glo luminescence); assay type: biochemical; details: human recombinant GCL 5 nM, 1 h preincubation with ATP
Procedure: The GCL enzyme assay was run in 50 mM HEPES, pH 7.5, containing 150 mM NaCl, 30 mM MgCl2, 0.5 mM EDTA, 1 mM DTT, 0.1 mg/mL BSA, and 0.02% or in the present case 0.2% F-127 in a total assay volume of 10 μL or 10 mL. Compound in pure DMSO was stamped in assay plates (Greiner black 384-well) or appropriate containers using a D300e digital dispenser (TECAN) and the final DMSO concentration was normalized to 1%. A 5 mL, or in the present case, 5 μL mixture of human recombinant GCL (final concentration: 5 nM) and ATP (final concentration: 0.6 mM) was added and the solution was incubated at room temperature (22° C.) for 1 h. The GCL enzyme reaction was initiated by addition of a 5 μL mixture of mono g-glutamate or in the present example, monosodium glutamate (final concentration: 1 mM) and a-aminobutyrate or α-aminobutyrate (final concentration: 1.2 mM). The reaction was stopped after 1 h or in the present case, 2 h by addition of 5 mL, or in the present case, 5 μL ADP GLO Reagent (Promega). The resulting solution was incubated for 2 h at room temperature. This was then followed by addition of 5 mL, or in the present case, 5 μL ADP GLO Detection. After incubation at room temperature for 30 min, the plates were read on a plate reader (PheraStar) using a luminescence protocol to quantify the GCL enzyme activity from each reaction solution. The data was analyzed using a four-parameter logistic equation to calculate IC50.

[2] = test system: RKN cells; assay: RKN cell profiling assay (cell viability, CellTiter-Glo); assay type: cell-based; details: 96 h, 96 h exposure, read-out: Cell Killing EC50
In short: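 Cells seeded at 1,000/well in F-12 with 10% FBS, left to adhere 24 h, then compound-treated for 96 h at 0.5% final DMSO. Viability by CellTiter-Glo luminescence; EC50 from four-parameter logistic fit. Ferroptosis rescue runs included 1.5 μM ferrostatin-1 added at seeding.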

[3] = read-out: GCL IC50 (mM), individual values in parentheses

Chain of human recombinant GCL (P48506 whole entry): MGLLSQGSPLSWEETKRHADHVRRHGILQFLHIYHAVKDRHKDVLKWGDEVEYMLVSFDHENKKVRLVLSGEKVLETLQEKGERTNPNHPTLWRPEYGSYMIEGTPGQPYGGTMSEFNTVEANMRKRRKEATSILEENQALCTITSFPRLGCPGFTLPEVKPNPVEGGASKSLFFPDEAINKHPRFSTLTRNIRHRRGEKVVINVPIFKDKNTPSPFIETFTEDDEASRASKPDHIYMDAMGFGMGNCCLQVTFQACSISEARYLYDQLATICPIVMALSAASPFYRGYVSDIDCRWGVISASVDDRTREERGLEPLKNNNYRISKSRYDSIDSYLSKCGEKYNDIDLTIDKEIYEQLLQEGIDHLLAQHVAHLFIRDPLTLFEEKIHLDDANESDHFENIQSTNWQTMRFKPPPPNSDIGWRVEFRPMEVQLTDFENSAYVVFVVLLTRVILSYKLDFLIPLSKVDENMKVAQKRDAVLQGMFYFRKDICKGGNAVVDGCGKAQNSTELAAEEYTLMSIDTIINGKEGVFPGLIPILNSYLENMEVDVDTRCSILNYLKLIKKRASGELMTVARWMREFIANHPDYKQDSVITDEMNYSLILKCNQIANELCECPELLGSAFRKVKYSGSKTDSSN

IC50 ([1]; read-out: GCL IC50) | IC50 [1, 3] | Compound | EC50 [2] [µM]
0.02 to 2 mM |  | CC(C)(CCS(=N)(=O)CC[C@H](N)C(=O)O)c1ccccc1Cl (stereo partly shown) [Compound 66] | ≥ 1000
> 2 mM |  | COC(=O)[C@@H](N)CCS(=N)(=O)CCc1cnccn1 (stereo partly drawn) [Compound 67, (2S)-methyl 2-amino-4-(2-(pyrazin-2-yl)ethylsulfonimidoyl)butanoate] | ≥ 1000
0.02 to 2 mM |  | COC(=O)[C@@H](N)CCS(=N)(=O)CCc1ccccc1 (stereo partly drawn) [Compound 68, (2S)-methyl 2-amino-4-(2-phenylethylsulfonimidoyl)butanoate] | ≥ 1000
> 2 mM |  | COC(=O)[C@@H](N)CCS(=N)(=O)CCc1nnn[nH]1 (stereo partly drawn) [Compound 69, (2S)-methyl 4-(2-(1H-tetrazol-5-yl)ethylsulfonimidoyl)-2-aminobutanoate] | ≥ 1000
0.02 to 2 mM |  | COC(=O)[C@@H](N)CCS(=N)(=O)CCCc1ccccc1 (stereo partly drawn) [Compound 70, (2S)-methyl 2-amino-4-(3-phenylpropylsulfonimidoyl)butanoate] | ≥ 1000
0.02 to 2 mM |  | COC(=O)[C@@H](N)CCS(=N)(=O)CCCC1CC1 (stereo partly drawn) [Compound 71, (2S)-methyl 2-amino-4-(3-cyclopropylpropylsulfonimidoyl)butanoate] | ≥ 1000
0.02 to 2 mM |  | CCCCOC(=O)[C@@H](N)CCS(=N)(=O)CCC(C)(C)C (stereo partly drawn) [Compound 72, (2S)-butyl 2-amino-4-(3,3-dimethylbutylsulfonimidoyl)butanoate] | < 1000
> 2 mM and 0.02 to 2 mM |  | CCCCS(=N)(=O)CC[C@H](N)C(=O)OCc1oc(=O)oc1C (stereo partly drawn) [Compound 73, (2S)-(5-methyl-2-oxo-1,3-dioxol-4-yl)methyl 2-amino-4-(butylsulfonimidoyl) butanoate] | ≥ 1000
0.02 to 2 mM |  | COC(=O)[C@@H](N)CCS(=N)(=O)CCC1CCCC1 (stereo partly shown) [Compound 74] | < 1000
> 2 mM and 0.02 to 2 mM | 2.35 mM and 0.594 mM | COCCCS(=N)(=O)CC[C@H](N)C(=O)OC (stereo partly shown) [Compound 75] | ≥ 1000
0.02 to 2 mM |  | COCCCCS(=N)(=O)CC[C@H](N)C(=O)OC (stereo partly shown) [Compound 76] | ≥ 1000
> 2 mM |  | CCCCOC(=O)[C@@H](N)CCS(=N)(=O)CCC1CCCC1 (stereo partly shown) [Compound 77] | < 1000
0.02 to 2 mM |  | CCCCOC(=O)[C@@H](N)CCS(=N)(=O)CCC1CCCCC1 (stereo partly shown) [Compound 78] | < 1000
> 2 mM |  | CCCCOC(=O)[C@@H](N)CCS(=N)(=O)CCCC(F)(F)F (stereo partly shown) [Compound 79] | < 1000
0.02 to 2 mM |  | N=S(=O)(CCCC(F)(F)F)CC[C@H](N)C(=O)OC1CCCCC1 (stereo partly shown) [Compound 80] | < 1000
0.02 to 2 mM |  | N=S(=O)(CCCC(F)(F)F)CC[C@H](N)C(=O)OCC1CCCCC1 (stereo partly shown) [Compound 81] | < 1000
0.02 to 2 mM |  | CCCC(C)OC(=O)[C@@H](N)CCS(=N)(=O)CCCC(F)(F)F (stereo partly shown) [Compound 82] | < 1000
0.02 to 2 mM |  | COCCOC(=O)[C@@H](N)CCS(=N)(=O)CCCC(F)(F)F (stereo partly shown) [Compound 83] | < 1000
0.02 to 2 mM |  | N=S(=O)(CCCC(F)(F)F)CC[C@H](N)C(=O)OC1CCOCC1 (stereo partly shown) [Compound 84] | < 1000

IC50 ([1]; read-out: GCL IC50) | IC50 [1, 3] | Compound | EC50 [2] [µM]
0.02 to 2 mM |  | N=S(=O)(CCCC(F)(F)F)CC[C@H](N)C(=O)OCc1ccccc1 (stereo partly shown) [Compound 86] | < 1000
0.02 to 2 mM |  | CCCCOC(=O)[C@@H](N)CCS(=N)(=O)CCC(C)(C)c1ccccc1 (stereo partly shown) [Compound 87] | < 1000
0.02 to 2 mM |  | CC(C)OC(=O)[C@@H](N)CCS(=N)(=O)CCCC(F)(F)F (stereo partly shown) [Compound 88] | < 1000
> 2 mM |  | CCCC(C)(C)OC(=O)[C@@H](N)CCS(=N)(=O)CCCC(F)(F)F (stereo partly shown) [Compound 89] | < 1000
0.02 to 2 mM |  | CCCCOC(=O)[C@@H](N)CC[S@@](=N)(=O)CCCC(F)(F)F [Compound 90] | < 1000
0.02 to 2 mM |  | CCCCOC(=O)[C@@H](N)CCS(=N)(=O)CCc1ccccc1Cl (stereo partly shown) [Compound 91] | < 1000
0.02 to 2 mM |  | CCCCOC(=O)[C@@H](N)CCS(=N)(=O)CCc1cccc(F)c1C(F)(F)F (stereo partly shown) [Compound 92] | < 1000
0.02 to 2 mM |  | CC(C)(C)OC(=O)[C@@H](N)CC[S@@](=N)(=O)CCCC(F)(F)F [Compound 93] | < 1000
0.02 to 2 mM |  | CCCCOC(=O)[C@@H](N)CCS(=N)(=O)CCc1ccccc1C(F)(F)F (stereo partly shown) [Compound 94] | < 1000
0.02 to 2 mM |  | CCCCOC(=O)[C@@H](N)CCS(=N)(=O)CCC(C)C (stereo partly shown) [Compound 95] | < 1000
> 2 mM |  | CC(C)(C)CCS(=N)(=O)CC[C@H](N)C(=O)OC1CCCCC1 (stereo partly shown) [Compound 97] | < 1000
> 2 mM |  | CCCC(C)(C)OC(=O)[C@@H](N)CCS(=N)(=O)CCC(C)(C)C (stereo partly shown) [Compound 99] | < 1000
> 2 mM |  | CCCCNC(=O)[C@@H](N)CCS(=N)(=O)CCC(C)(C)C (stereo partly drawn) [Compound 100, (2S)-2-amino-N-butyl-4-(3,3-dimethylbutylsulfonimidoyl)butanamide] | < 1000
> 2 mM |  | CC(C)(C)CCS(=N)(=O)CC[C@H](N)C(=O)Nc1cccnc1 (stereo partly drawn) [Compound 101, (2S)-2-amino-4-(3,3-dimethylbutylsulfonimidoyl)-N-(pyridin-3-yl)butanamide] | < 1000
0.02 to 2 mM |  | CCCCS(=N)(=O)CC[C@H](N)C(=O)NS(C)(=O)=O (stereo partly drawn) [Compound 104, (2S)-2-amino-4-(butylsulfonimidoyl)-N-(methylsulfonyl)butanamide] | ≥ 1000
> 2 mM |  | CCCCS(=N)(=O)CC[C@H](N)C(N)=O (stereo partly drawn) [Compound 105, (2S)-2-amino-4-(butylsulfonimidoyl)butanamide] | ≥ 1000
> 2 mM |  | CCCCS(=N)(=O)CC[C@H](N)C(=O)NCC#N (stereo partly shown) [Compound 106] | ≥ 1000
> 2 mM |  | CCCCS(=N)(=O)CC[C@H](N)C(=O)NS(=O)(=O)C(F)(F)F (stereo partly shown) [Compound 108] | ≥ 1000
0.02 to 2 mM |  | CCCCS(=N)(=O)CC[C@H](N)C(=O)NS(=O)(=O)C1CC1 (stereo partly shown) [Compound 109] | ≥ 1000

IC50 ([1]; read-out: GCL IC50) | IC50 [1, 3] | Compound | EC50 [2] [µM]
0.02 to 2 mM |  | CC(C)(C)CCS(=N)(=O)CC[C@H](N)C(=O)NS(C)(=O)=O (stereo partly shown) [Compound 111] | ≥ 1000
0.02 to 2 mM |  | CCCCS(=N)(=O)CC[C@H](N)C(=O)NCC(N)=O (stereo partly shown) [Compound 112] | ≥ 1000
0.02 to 2 mM |  | CC(C)(C)CCS(=N)(=O)CC[C@H](N)C(=O)NC1CC1 (stereo partly shown) [Compound 113] | < 1000
> 2 mM |  | CC(C)(C)CCS(=N)(=O)CC[C@H](N)C(=O)NCC(F)(F)F (stereo partly shown) [Compound 114] | < 1000
> 2 mM |  | CN(C)C(=O)[C@@H](N)CCS(=N)(=O)CCC(C)(C)C (stereo partly shown) [Compound 115] | ≥ 1000
> 2 mM |  | CC(C)(C)CCS(=N)(=O)CC[C@H](N)C(=O)N1CCCC1 (stereo partly shown) [Compound 116] | ≥ 1000
> 2 mM |  | CC(C)(C)CCS(=N)(=O)CC[C@H](N)C(=O)NC(C)(C)C (stereo partly shown) [Compound 117] | ≥ 1000
> 2 mM |  | CC(C)(C)CCS(=N)(=O)CC[C@H](N)C(=O)Nc1ccccc1 (stereo partly shown) [Compound 118] | < 1000
> 2 mM |  | CC(C)(C)CCS(=N)(=O)CC[C@H](N)C(=O)NC1CCOCC1 (stereo partly shown) [Compound 120] | < 1000
> 2 mM |  | CC(C)(C)CCS(=N)(=O)CC[C@H](N)C(=O)NCc1ccccc1 (stereo partly shown) [Compound 122] | < 1000
> 2 mM and 0.02 to 2 mM | > 10 mM and 1.16 mM | CC(C)(C)CCS(=N)(=O)CC[C@H](N)C(=O)Nc1cc[nH]n1 (stereo partly shown) [Compound 123] | ≥ 1000
> 2 mM |  | CC(C)(C)CCS(=N)(=O)CC[C@H](N)C(=O)NCc1cncs1 (stereo partly shown) [Compound 124] | < 1000
> 2 mM |  | CC(C)(C)CCS(=N)(=O)CC[C@H](N)C(=O)NCCC(C)(C)O (stereo partly shown) [Compound 125] | < 1000
> 2 mM |  | CC(C)(C)CCS(=N)(=O)CC[C@H](N)C(=O)NC(CO)CO (stereo partly shown) [Compound 126] | ≥ 1000
> 2 mM |  | CC(C)(C)CCS(=N)(=O)CC[C@H](N)C(=O)Nc1ccncc1 (stereo partly shown) [Compound 127] | < 1000
0.02 to 2 mM |  | CC(C)(C)CCS(=N)(=O)CC[C@H](N)C(=O)Nc1ccccn1 (stereo partly shown) [Compound 128] | < 1000
> 2 mM |  | CC(C)(C)CCS(=N)(=O)CC[C@H](N)C(=O)NC1COC1 (stereo partly shown) [Compound 129] | < 1000
> 2 mM and 0.02 to 2 mM | > 10 mM and 1.73 mM | N=S(=O)(CCCC(F)(F)F)CC[C@H](N)C(=O)NC1CC1 (stereo partly shown) [Compound 130] | < 1000

Reference: patent US20260034094A1, “COMPOSITIONS AND METHODS FOR INDUCING FERROPTOSIS” (Kojin Therapeutics, Inc., priority 2022, published 2026)
